Results published in US20220090124A1, “HUMANIZED VIPR2 COPY NUMBER VARIANT TRANSGENIC MOUSE MODEL FOR ANTIPSYCHOTIC DRUG AND GENE THERAPY DISCOVERY FOR SCHIZOPHRENIA” (Board of Supervisors of Louisiana State University and …, priority 2019, published 2022).

Experiments:
human VIPR2 receptor = biological target: T1, human VIPR2 receptor (Homo sapiens, UniProt P41587); assay: receptor block and downstream signaling in cell line expressing the human VIPR2 receptor; format: cell-based; conditions: cell line expressing the human VIPR2 receptor (cell line of VIPR2 CNV)
T1 construct: expressed in transfected cells; host or cells: cell line of VPIR2 CNV (not further described)
T1 sequence (P41587 24-438): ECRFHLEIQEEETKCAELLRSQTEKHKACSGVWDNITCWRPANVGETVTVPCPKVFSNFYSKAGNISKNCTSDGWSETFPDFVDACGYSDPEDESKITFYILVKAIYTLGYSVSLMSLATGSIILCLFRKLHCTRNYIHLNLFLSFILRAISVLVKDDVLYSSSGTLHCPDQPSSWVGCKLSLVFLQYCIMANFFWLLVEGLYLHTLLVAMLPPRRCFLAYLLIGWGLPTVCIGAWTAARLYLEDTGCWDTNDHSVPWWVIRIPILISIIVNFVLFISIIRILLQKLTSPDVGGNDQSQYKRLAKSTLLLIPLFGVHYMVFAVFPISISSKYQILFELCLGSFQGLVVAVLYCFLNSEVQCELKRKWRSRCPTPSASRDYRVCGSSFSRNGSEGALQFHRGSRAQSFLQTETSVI
Excerpt: Turning finally to FIG. 57, a small molecule VIPR2 antagonist, (2R,4S)-2-benzyl-4-hydroxy-N-((1S,2R)-2-hydroxy-2,3-dihydro-1H-inden-1-yl)-5-(4-nitrophenylsulfonamido) pentanamide, is shown. Another object of the present invention is to use the VIRP2 BAC Schizophrenia mouse model to identify VIPR2 receptor antagonist as an antipsychotic drug targeting cognitive and social deficits, or as disease-modifying therapy to prevent or slow/stop disease progression. Currently, the majority of VIPR2 agonist or antagonist are peptides. However, two properties of the peptide hormone are problematic from the perspective of therapeutic applications. First, they have a short half-life as a result of its rapid proteolysis. Second, most of these peptides are not specific and activate three broadly distributed receptors, VIPR1, VIPR2, and PAC1. A high-throughput screen on human VPAC2 receptor using a cell-based cAMP assay has identified a single confirmed antagonist hit from a 1.67 million-compound collection. This compound is the first specific small molecule antagonist for human VIPR2 receptor. The full name of the compound is (2R,4S)-2-benzyl-4-hydroxy-N-((1S,2R)-2-hydroxy-2,3-dihydro-1H-inden-1-yl)-5-(4-nitrophenylsulfonamido) pentanamide (FIG. 57). […] The inventors experimented with this hVIPR2 antagonist in the cell line of VPIR2 CNV. […]

hVPAC1 = biological target: T2, hVPAC1 (Homo sapiens, UniProt P32241); conditions: selectivity; cited from earlier work
T2 sequence (P32241 31-457): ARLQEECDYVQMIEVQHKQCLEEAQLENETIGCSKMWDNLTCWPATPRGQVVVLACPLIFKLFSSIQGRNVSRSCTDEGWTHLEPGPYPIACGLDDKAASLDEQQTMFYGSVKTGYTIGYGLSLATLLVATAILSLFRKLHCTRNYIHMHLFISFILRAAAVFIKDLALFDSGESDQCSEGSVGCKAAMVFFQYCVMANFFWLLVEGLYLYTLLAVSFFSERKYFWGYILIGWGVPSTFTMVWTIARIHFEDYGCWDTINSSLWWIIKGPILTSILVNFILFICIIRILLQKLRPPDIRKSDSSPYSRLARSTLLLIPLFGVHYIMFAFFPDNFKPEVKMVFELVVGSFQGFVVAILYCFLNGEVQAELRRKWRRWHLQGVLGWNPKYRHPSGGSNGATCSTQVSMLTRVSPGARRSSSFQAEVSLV

hPAC1 = biological target: T3, hPAC1 (Homo sapiens, UniProt P41586); conditions: selectivity; cited from earlier work
T3 sequence (P41586 21-468): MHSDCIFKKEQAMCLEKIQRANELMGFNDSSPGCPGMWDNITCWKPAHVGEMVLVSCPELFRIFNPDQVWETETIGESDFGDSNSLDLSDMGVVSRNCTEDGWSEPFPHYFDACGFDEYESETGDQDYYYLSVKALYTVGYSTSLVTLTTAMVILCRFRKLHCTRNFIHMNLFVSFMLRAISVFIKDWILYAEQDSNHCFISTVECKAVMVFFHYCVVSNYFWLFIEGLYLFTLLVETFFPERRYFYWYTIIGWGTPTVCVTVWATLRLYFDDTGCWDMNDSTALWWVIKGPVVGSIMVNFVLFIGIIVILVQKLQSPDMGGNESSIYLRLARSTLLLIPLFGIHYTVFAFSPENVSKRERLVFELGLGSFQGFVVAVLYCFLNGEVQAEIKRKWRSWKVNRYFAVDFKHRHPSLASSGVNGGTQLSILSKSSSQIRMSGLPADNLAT

human VPAC2 receptor = biological target: T4, human VPAC2 receptor (Homo sapiens, UniProt P41587); conditions: high-throughput screen of 1.67 million-compound collection, cell-based cAMP assay; cited from earlier work
T4 sequence (P41587 24-438): T1 sequence (P41587 24-438)

mouse Vipr2 receptor = biological target: T5, mouse Vipr2 receptor (Mus musculus, UniProt P41588); conditions: species specificity; cited from earlier work
T5 sequence (P41588 23-437): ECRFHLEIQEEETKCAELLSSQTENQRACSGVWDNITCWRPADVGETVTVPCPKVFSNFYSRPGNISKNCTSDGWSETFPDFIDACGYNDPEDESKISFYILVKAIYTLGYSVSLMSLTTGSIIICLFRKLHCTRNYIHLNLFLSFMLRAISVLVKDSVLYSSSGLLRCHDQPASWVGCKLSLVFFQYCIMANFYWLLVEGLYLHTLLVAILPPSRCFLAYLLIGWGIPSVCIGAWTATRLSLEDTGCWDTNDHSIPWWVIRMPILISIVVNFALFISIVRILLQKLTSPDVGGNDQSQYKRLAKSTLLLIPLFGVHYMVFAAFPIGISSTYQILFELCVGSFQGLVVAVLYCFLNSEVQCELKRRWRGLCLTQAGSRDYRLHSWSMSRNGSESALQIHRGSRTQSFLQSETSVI

Structure (SMILES): O=C(N[C@H]1c2ccccc2C[C@H]1O)[C@H](Cc1ccccc1)C[C@H](O)CNS(=O)(=O)c1ccc([N+](=O)[O-])cc1 [(2R,4S)-2-benzyl-4-hydroxy-N-((1S,2R)-2-hydroxy-2,3-dihydro-1H-inden-1-yl)-5-(4-nitrophenylsulfonamido) pentanamide]
- block of VIPR2 receptor and downstream signaling (human VIPR2 receptor): blocks the VIPR2 receptor and the downstream signaling
- antagonism of hVPAC1 (hVPAC1): does not antagonize
- antagonism of hPAC1 (hPAC1): does not antagonize
- antagonist activity on human VIPR2 receptor (human VPAC2 receptor): selective human VIPR2 antagonist
- activity on the mouse Vipr2 receptor (mouse Vipr2 receptor): completely lacks activity
